# Measurements taken from US20250034167A1, “HETEROCYCLIC COMPOUNDS AND METHODS OF USE” (AMGEN INC., priority 2021, published 2025).
# System: Phosphorylation of ERK1/2 in AsPC-1 cells
# Experiment: Phospho-ERK1/2 MSD Assay
# Format: cell-based
# Conditions: Homo sapiens, ASPC1, 2 h, read-out: 2 h p-ERK (AsPC-1 cells), IC50, AsPC-1 cells, 2 h compound treatment
# Procedure: Sixteen hours prior to compound treatment, AsPC-1 cells were seeded in 96-well cell culture plates at a density of 25,000 cells/well and incubated at 37° C., 5% CO2. A compound dose-response titration was diluted in growth media, added to appropriate wells of a cell culture plate, and then incubated at 37° C., 5% CO2 for 2 hours.
row,IC50 [nM],SMILES
1,213,"CCc1c(F)ccc2cc(O)cc(-c3ncc4c(N5CCC[C@@](C)(N)C5)nc(OCC56CCCN5CC(F)C6)nc4c3F)c12 (stereo in doubt) [Example 46, 4-(4-((R)-3-Amino-3-methylpiperidin-1-yl)-8-fluoro-2-(((2R,7aS)-2-fluorotetrahydro-1H-pyrrolizin-7a(5H)-yl)methoxy)pyrido[4,3-d]pyrimidin-7-yl)-5-ethyl-6-fluoronaphthalen-2-ol]"
2,1480,"CCc1c(F)ccc2cc(O)cc(-c3ncc4c(N5CCCC(OC)C5)nc(OC[C@@]56CCCN5C[C@H](F)C6)nc4c3F)c12 (stereo partly drawn) [Example 15, 5-Ethyl-6-fluoro-4-(8-fluoro-2-(((2R,7aS)-2-fluorotetrahydro-1H-pyrrolizin-7a(5H)-yl)methoxy)-4-(3-methoxypiperidin-1-yl)pyrido[4,3-d]pyrimidin-7-yl)naphthalen-2-ol]"
3,2860,"CCc1c(F)ccc2cc(O)cc(-c3ncc4c(N5CCC(O)C5)nc(OC[C@@]56CCCN5C[C@H](F)C6)nc4c3F)c12 (stereo partly drawn) [Example 16, 1-(7-(8-Ethyl-7-fluoro-3-hydroxynaphthalen-1-yl)-8-fluoro-2-(((2R,7aS)-2-fluorotetrahydro-1H-pyrrolizin-7a(5H)-yl)methoxy)pyrido[4,3-d]pyrimidin-4-yl)pyrrolidin-3-ol]"
4,344,"CCc1c(F)ccc2cc(O)cc(-c3ncc4c(N5C[C@H](O)CC[C@H]5C)nc(OC[C@@]56CCCN5C[C@H](F)C6)nc4c3F)c12 [Example 36, (3R,6R)-1-(7-(8-Ethyl-7-fluoro-3-hydroxynaphthalen-1-yl)-8-fluoro-2-(((2R,7aS)-2-fluorotetrahydro-1H-pyrrolizin-7a(5H)-yl)methoxy)pyrido[4,3-d]pyrimidin-4-yl)-6-methyl-piperidin-3-ol]"

# Same assay, conditions: read-out: 2 h p-ERK (AsPC-1 cells), IC50; AsPC-1 cells, 2 h compound treatment
row,IC50 [nM],SMILES
1,2,"CCc1c(F)ccc2cc(O)cc(-c3ncc4c(N5CCCC(O)(CF)C5)nc(OC[C@@]56CCCN5C[C@H](F)C6)nc4c3F)c12 (single isomer, unassigned) [Example 171]"
2,86,"CCc1c(F)ccc2cc(O)cc(-c3ncc4c(N5CCCC(O)(CF)C5)nc(OC[C@@]56CCCN5C[C@H](F)C6)nc4c3F)c12 (single isomer, unassigned) [Example 172]"

# Biological target: His-tagged KRAS G12D protein (Homo sapiens, UniProt P01116, G12D)
# Sequence (P01116 1-188 isoform P01116-2 G12D): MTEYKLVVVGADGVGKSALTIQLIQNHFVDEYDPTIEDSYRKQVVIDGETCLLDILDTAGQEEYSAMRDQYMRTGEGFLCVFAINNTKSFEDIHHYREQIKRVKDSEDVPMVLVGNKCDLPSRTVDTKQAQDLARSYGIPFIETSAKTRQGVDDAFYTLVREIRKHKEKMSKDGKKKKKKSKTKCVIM
# Experiment: biochemical
# Conditions: not given
row,IC50 [nM],SMILES
1,70,"CCc1c(F)ccc2cc(O)cc(-c3ncc4c(N5CCCC(C(C)(C)O)C5)nc(OC[C@@]56CCCN5C[C@H](F)C6)nc4c3F)c12 (stereo partly drawn) [Example 124, 5-Ethyl-6-fluoro-4-(8-fluoro-2-(((2R,7aS)-2-fluorotetrahydro-1H-pyrrolizin-7a(5H)-yl)methoxy)-4-(3-(2-hydroxypropan-2-yl)piperidin-1-yl)pyrido[4,3-d]pyrimidin-7-yl)naphthalen-2-ol]"
2,4,"CCc1c(F)ccc2cc(O)cc(-c3ncc4c(N5CCCC[C@H](O)C5)nc(OC[C@@]56CCCN5C[C@H](F)C6)nc4c3F)c12 [Example 130, (S)-1-(7-(8-Ethyl-7-fluoro-3-hydroxynaphthalen-1-yl)-8-fluoro-2-(((2R,7aS)-2-fluorotetrahydro-1H-pyrrolizin-7a(5H)-yl)methoxy)pyrido[4,3-d]pyrimidin-4-yl)azepan-3-ol]"
3,4,"CCc1c(F)ccc2cc(O)cc(-c3ncc4c(N5CCCC[C@@H](N)C5)nc(OC[C@@]56CCCN5C[C@H](F)C6)nc4c3F)c12 [Example 131, 4-(4-((R)-3-Aminoazepan-1-yl)-8-fluoro-2-(((2R,7aS)-2-fluorotetrahydro-1H-pyrrolizin-7a(5H)-yl)methoxy)pyrido[4,3-d]pyrimidin-7-yl)-5-ethyl-6-fluoronaphthalen-2-ol]"
4,14,"CCc1c(F)ccc2cc(O)cc(-c3ncc4c(N5CCCC(C)(O)CC5)nc(OC[C@@]56CCCN5C[C@H](F)C6)nc4c3F)c12 (stereo partly drawn) [Example 142, 1-(7-(8-Ethyl-7-fluoro-3-hydroxynaphthalen-1-yl)-8-fluoro-2-(((2R,7aS)-2-fluorotetrahydro-1H-pyrrolizin-7a(5H)-yl)methoxy)pyrido[4,3-d]pyrimidin-4-yl)-4-methylazepan-4-ol]"
5,6,"C=C1CCCN(c2nc(OC[C@@]34CCCN3C[C@H](F)C4)nc3c(F)c(-c4cc(O)cc5ccc(F)c(CC)c45)ncc23)CC1 [Example 144, 5-Ethyl-6-fluoro-4-(8-fluoro-2-(((2R,7aS)-2-fluorotetrahydro-1H-pyrrolizin-7a(5H)-yl)methoxy)-4-(4-methyleneazepan-1-yl)pyrido[4,3-d]pyrimidin-7-yl)naphthalen-2-ol]"
6,38,"CCc1c(F)ccc2cc(O)cc(-c3ncc4c(N5CCCC(C)(OC)C5)nc(OC[C@@]56CCCN5C[C@H](F)C6)nc4c3F)c12 (stereo partly drawn) [Example 148, 5-Ethyl-6-fluoro-4-(8-fluoro-2-(((2R,7aS)-2-fluorotetrahydro-1H-pyrrolizin-7a(5H)-yl)methoxy)-4-(3-methoxy-3-methylpiperidin-1-yl)pyrido[4,3-d]pyrimidin-7-yl)naphthalen-2-ol]"
7,11,"CCc1c(F)ccc2cc(O)cc(-c3ncc4c(N5CCCC(C#N)C5)nc(OC[C@@]56CCCN5C[C@H](F)C6)nc4c3F)c12 (stereo partly drawn) [Example 151, 1-(7-(8-Ethyl-7-fluoro-3-hydroxy-naphthalen-1-yl)-8-fluoro-2-(((2R,7aS)-2-fluorotetrahydro-1H-pyrrolizin-7a(5H)-yl)methoxy)pyrido[4,3-d]pyrimidin-4-yl)piperidine-3-carbonitrile]"

# The remaining lines, values behind:
row,SMILES,IC50 [nM]
1,"CCc1c(F)ccc2cc(O)cc(-c3ncc4c(N5CCC[C@H](C(N)=O)C5)nc(OC[C@@]56CCCN5C[C@H](F)C6)nc4c3F)c12 [Example 90, (S)-1-(7-(8-Ethyl-7-fluoro-3-hydroxynaphthalen-1-yl)-8-fluoro-2-(((2R,7aS)-2-fluorotetrahydro-1H-pyrrolizin-7a(5H)-yl)methoxy)pyrido[4,3-d]pyrimidin-4-yl)piperidine-3-carboxamide]",16
2,"CCc1c(F)ccc2cc(O)cc(-c3ncc4c(N5CCCC(c6c[nH]cn6)C5)nc(OC[C@@]56CCCN5C[C@H](F)C6)nc4c3F)c12 (stereo partly drawn) [Example 106, 4-(4-(3-(1H-Imidazol-4-yl)piperidin-1-yl)-8-fluoro-2-(((2R,7aS)-2-fluorotetrahydro-1H-pyrrolizin-7a(5H)-yl)methoxy)pyrido[4,3-d]pyrimidin-7-yl)-5-ethyl-6-fluoronaphthalen-2-ol]",10
3,"CCc1c(F)ccc2cc(O)cc(-c3ncc4c(N5CCCC(c6ccn[nH]6)C5)nc(OC[C@@]56CCCN5C[C@H](F)C6)nc4c3F)c12 (stereo partly drawn) [Example 107, 4-(4-(3-(1H-Pyrazol-5-yl)piperidin-1-yl)-8-fluoro-2-(((2R,7aS)-2-fluorotetrahydro-1H-pyrrolizin-7a(5H)-yl)methoxy)pyrido[4,3-d]pyrimidin-7-yl)-5-ethyl-6-fluoronaphthalen-2-ol]",8
4,"CCc1c(F)ccc2cc(O)cc(-c3ncc4c(N5CCCC(c6cnco6)C5)nc(OC[C@@]56CCCN5C[C@H](F)C6)nc4c3F)c12 (stereo partly drawn) [Example 108, 5-Ethyl-6-fluoro-4-(8-fluoro-2-(((2R,7aS)-2-fluorotetrahydro-1H-pyrrolizin-7a(5H)-yl)methoxy)-4-(3-(oxazol-5-yl)piperidin-1-yl)pyrido[4,3-d]pyrimidin-7-yl)naphthalen-2-ol]",11
5,"CCc1c(F)ccc2cc(O)cc(-c3ncc4c(N5CC=CC(O)C5)nc(OC[C@@]56CCCN5C[C@H](F)C6)nc4c3F)c12 (stereo partly drawn) [Example 109, 1-(7-(8-Ethyl-7-fluoro-3-hydroxynaphthalen-1-yl)-8-fluoro-2-(((2R,7aS)-2-fluorotetrahydro-1H-pyrrolizin-7a(5H)-yl)methoxy)pyrido[4,3-d]pyrimidin-4-yl)-1,2,3,6-tetrahydropyridin-3-ol]",12
6,"CCc1c(F)ccc2cc(O)cc(-c3ncc4c(N5CCCC(NS(C)(=O)=O)C5)nc(OC[C@@]56CCCN5C[C@H](F)C6)nc4c3F)c12 (stereo partly drawn) [Example 110, N-(1-(7-(8-Ethyl-7-fluoro-3-hydroxynaphthalen-1-yl)-8-fluoro-2-(((2R,7aS)-2-fluorotetrahydro-1H-pyrrolizin-7a(5H)-yl)methoxy)pyrido[4,3-d]pyrimidin-4-yl)piperidin-3-yl)methanesulfonamide]",6
7,"CCc1c(F)ccc2cc(O)cc(-c3ncc4c(N5C[C@H]6COC[C@H]6C5)nc(OC[C@@]56CCCN5C[C@H](F)C6)nc4c3F)c12 [Example 122, 5-Ethyl-6-fluoro-4-(8-fluoro-2-(((2R,7aS)-2-fluorotetrahydro-1H-pyrrolizin-7a(5H)-yl)methoxy)-4-((3aR,6aS)-tetrahydro-1H-furo[3,4-c]pyrrol-5(3H)-yl)pyrido[4,3-d]pyrimidin-7-yl)naphthalen-2-ol]",33
8,"CCc1c(F)ccc2cc(O)cc(-c3ncc4c(N5C[C@H](O)C[C@H](C(F)(F)F)C5)nc(OC[C@@]56CCCN5C[C@H](F)C6)nc4c3F)c12 [Example 154, (3R,5S)-1-(7-(8-Ethyl-7-fluoro-3-hydroxy-naphthalen-1-yl)-8-fluoro-2-(((2R,7aS)-2-fluorotetrahydro-1H-pyrrolizin-7a(5H)-yl)methoxy)pyrido[4,3-d]pyrimidin-4-yl)-5-(trifluoromethyl) piperidin-3-ol]",16
9,"CCc1c(F)ccc2cc(O)cc(-c3ncc4c(N5CCCC(S(=O)(=O)C(F)F)C5)nc(OC[C@@]56CCCN5C[C@H](F)C6)nc4c3F)c12 (stereo partly drawn) [Example 161, 4-(4-(3-((Difluoromethyl)sulfonyl)piperidin-1-yl)-8-fluoro-2-(((2R,7aS)-2-fluorotetrahydro-1H-pyrrolizin-7a(5H)-yl)methoxy)pyrido[4,3-d]pyrimidin-7-yl)-5-ethyl-6-fluoronaphthalen-2-ol]",76
